Tests used:
[1] = molecular target: T1, GPIIb/IIIa receptors (Homo sapiens, UniProt P05106+P08514); assay: ADP induced platelet aggregation inhibition assay in platelet rich plasma; type: cell-based; conditions: read-out: IC50 (half-maximal inhibition of platelet aggregation)
T1 construct: endogenous in cells; host or cells: platelets in platelet rich plasma from healthy volunteer donors
Protocol: This Example describes Platelet Aggregation Inhibition Assays of the compound of Example 2 to illustrate that the compound binds to GPIIb/IIIa receptors when radiolabelled.
Healthy aspirin free donors were randomly selected from a pool of volunteers. The harvesting of platelet rich plasma and subsequent ADP induced platelet aggregation assays were performed as described in Zucker, M. B. "Platelet Aggregation Measured by the Photometric Method", Methods in Enzymology 169 (1989):117-133. Standard venipuncture techniques using butterfly allowed the withdrawal of 45 mL of whole blood into a 60 mL syringe containing 5 mL 3.8% trisodium citrate. Following thorough mixing in the syringe, the anti-coagulated whole blood was transferred to a 50 mL conical polyethylene tube. The blood was centrifuged at room temperature for 12 minutes at 200xg to sediment non-platelet cells. Platelet poor plasma was obtained from a second centrifugation of the remaining blood at 2000xg for 15 minutes. Platelet counts are typically 300,000 to 500,000 per microliter. […] Aggregation was recorded for 3 minutes in a Payton dual channel aggregometer (Payton Scientific, Buffalo, N.Y.). […] The compounds were tested in duplicate and half-maximal inhibition (IC50) was calculated graphically from the dose response curve. […]

[2] = Biodistribution in rat model (radioactivity in organs, excretion); type: in vivo, Sprague-Dawley rats
Protocol: This study was designed to evaluate the biodistribution pattern of the compound of Example 2 to determine the clearance profile from blood, route of excretion and in vivo stability of the complex by HPLC analysis of urine samples, in a rat model.
The compound of Example 2 was injected ([…], 1.5-3.5 mCi/mL) into Sprague-Dawley rats. Groups of three animals were sacrificed at the time points indicated below to determine the amount of radioactivity remained in the organs. Results: (to be filled)
The compound of Example 7 was injected ([…], 1.5-3.5 mCi/mL) into Sprague-Dawley rats. Groups of three animals were sacrificed at the time points indicated below to determine the amount of radioactivity (%ID/g) remaining in the organs.
The compound of Example 12 was injected into Sprague-Dawley rats according to the procedure outlined in Example 5. The amount of radioactivity present in the major excretionary organs at different time points (1, 4 and 24 hours) are given below.
The compound of Example 19 was injected into Sprageue-Dawley rats according to the procedure outlined earlier. The amount of radioactivity present in the major excretionary organs at different time points (1, 4 and 24 hours) are given below.
The compound of Example 26 was injected ([…], 1.5-3.5 mCi/mL) into Sprague-Dawley rats. Groups of three animals were sacrificed at the time points indicated below to determine the amount of radioactivity remaining in the organs.

[3] = tested on: pulmonary emboli (PE) and/or deep vein thrombus (DVT); assay: Canine model for pulmonary embolism / deep vein thrombus (embolization coils); type: in vivo, dog; conditions: sacrifice at 3 hours
Protocol: These studies are designed to serve as a preliminary screen of various radiolabeled pharmaceuticals for the purpose of imaging pulmonary emboli (PE) and/or deep vein thrombus (DVT).
Procedure: The dog is first anesthetized with an intravenous injection of sodium pentobarbital (30 mg/kg). An IV catheter is placed into the jugular vein and advanced to the pulmonary artery. Visualization of the catheter placement is facilitated using fluoroscopy. Embolization coils of various sizes (3-8 mm) are next released via the catheter using the appropriate guide wire, and localization of the coils is followed by fluoroscopy. After a satisfactory number of coils (3-5) have been placed and visualized, the catheter is removed and the vein ligated. The formation of a deep vein thrombus (DVT) in the saphenous vein is facilitated by the placement of a 16 gauge needle into the vein followed by the passage of a 5 mm embolization coil through the needle directly into the vein.
IV injection (cephalic vein) of the radiolabeled test article occurs approximately 30-45 minutes post placement of the embolization coils. Approximate activity injected is 2.5-3.5mCi. Beginning at 30 minutes post injection and continuing for several hours at 30 minute intervals, the animal is scintigraphed in both the lateral and supine positions.
At the conclusion of the imaging portion of the study (3 hours) the animal is sacrificed, and selected tissues removed for scintillation counting. The coils are located, removed and quantitated for uptake of the radiotracer. From these values is determined the target:non-target ratios and blood clearance of the test article.
The compound of claim 19 was administered to a canine according to the general protocol described in Example 16.

T1 sequence (P08514 32-887 limits assumed): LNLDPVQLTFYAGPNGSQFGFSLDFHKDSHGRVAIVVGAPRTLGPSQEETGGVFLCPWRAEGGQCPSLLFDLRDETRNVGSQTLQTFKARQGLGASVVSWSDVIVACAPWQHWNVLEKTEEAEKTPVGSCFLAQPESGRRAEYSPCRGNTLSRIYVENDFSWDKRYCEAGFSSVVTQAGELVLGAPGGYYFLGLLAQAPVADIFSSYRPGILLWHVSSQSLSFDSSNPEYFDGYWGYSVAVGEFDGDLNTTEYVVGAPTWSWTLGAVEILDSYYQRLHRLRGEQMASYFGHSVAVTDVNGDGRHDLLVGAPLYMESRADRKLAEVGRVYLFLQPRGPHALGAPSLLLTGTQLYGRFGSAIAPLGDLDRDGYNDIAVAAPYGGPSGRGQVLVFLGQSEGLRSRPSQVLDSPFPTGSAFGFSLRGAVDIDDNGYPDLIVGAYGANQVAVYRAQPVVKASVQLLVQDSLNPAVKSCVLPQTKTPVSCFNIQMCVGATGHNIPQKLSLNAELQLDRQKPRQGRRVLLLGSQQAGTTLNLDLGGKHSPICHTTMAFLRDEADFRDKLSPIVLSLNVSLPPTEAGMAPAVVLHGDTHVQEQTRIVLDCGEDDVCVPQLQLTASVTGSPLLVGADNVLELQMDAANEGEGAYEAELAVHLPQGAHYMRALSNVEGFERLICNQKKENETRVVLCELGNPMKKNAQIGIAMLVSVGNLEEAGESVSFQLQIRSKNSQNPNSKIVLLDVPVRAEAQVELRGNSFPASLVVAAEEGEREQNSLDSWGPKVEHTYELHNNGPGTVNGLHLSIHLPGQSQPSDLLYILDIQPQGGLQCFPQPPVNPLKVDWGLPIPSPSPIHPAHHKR
T1 sequence (P08514 891-1039 partner limits assumed): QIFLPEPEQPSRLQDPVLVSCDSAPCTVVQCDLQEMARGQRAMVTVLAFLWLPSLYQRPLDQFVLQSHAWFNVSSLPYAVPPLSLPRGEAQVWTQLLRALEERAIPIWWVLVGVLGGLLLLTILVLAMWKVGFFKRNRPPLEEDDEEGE
T1 sequence (P05106 27-788): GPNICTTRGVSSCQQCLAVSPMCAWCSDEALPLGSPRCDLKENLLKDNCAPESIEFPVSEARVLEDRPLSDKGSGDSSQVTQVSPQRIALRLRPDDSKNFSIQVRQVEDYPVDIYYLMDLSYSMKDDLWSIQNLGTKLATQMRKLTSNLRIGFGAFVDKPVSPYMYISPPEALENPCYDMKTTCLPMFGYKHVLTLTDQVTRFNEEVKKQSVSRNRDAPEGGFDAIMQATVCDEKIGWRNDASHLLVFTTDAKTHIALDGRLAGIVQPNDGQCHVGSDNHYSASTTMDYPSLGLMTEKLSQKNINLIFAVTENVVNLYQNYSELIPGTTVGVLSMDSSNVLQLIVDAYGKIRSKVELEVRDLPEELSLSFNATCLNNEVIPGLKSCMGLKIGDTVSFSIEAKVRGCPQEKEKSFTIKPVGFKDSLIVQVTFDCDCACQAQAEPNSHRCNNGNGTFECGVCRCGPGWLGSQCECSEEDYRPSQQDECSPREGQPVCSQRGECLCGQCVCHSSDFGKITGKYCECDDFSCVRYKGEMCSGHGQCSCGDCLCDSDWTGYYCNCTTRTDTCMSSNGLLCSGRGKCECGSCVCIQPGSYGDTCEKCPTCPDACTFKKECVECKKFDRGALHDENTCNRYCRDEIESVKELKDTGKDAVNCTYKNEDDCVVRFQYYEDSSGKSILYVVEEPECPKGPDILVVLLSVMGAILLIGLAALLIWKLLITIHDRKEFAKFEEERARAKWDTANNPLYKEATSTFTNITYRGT

IC50 [1] | radioactivity in organ: Blood ([2]; 1 hour) | radioactivity in organ: Kidney ([2]; 1 hour) | radioactivity in organ: Liver ([2]; 1 hour) | radioactivity in organ: Sml. Int & Contents ([2]; 1 hour) | radioactivity in organ: Blood ([2]; 4 hours) | radioactivity in organ: Kidney ([2]; 4 hours) | radioactivity in organ: Liver ([2]; 4 hours) | radioactivity in organ: Sml. Int & Contents ([2]; 4 hours) | radioactivity in organ: Blood ([2]; 24 hours) | radioactivity in organ: Kidney ([2]; 24 hours) | radioactivity in organ: Liver ([2]; 24 hours) | radioactivity in organ: Sml. Int & Contents ([2]; 24 hours) | % ID excreted in the feces at 24 hr. [2] | % ID excreted in the urine at 24 hr. [2] | SMILES | other results
290 nM |  |  |  |  |  |  |  |  |  |  |  |  |  |  | CN(C)CC[N]1C(=O)C(CCC(=O)O)[N]2C(=O)C(CCCC(=O)NCCCCC(NC(=O)C(CC(=O)O)NC(=O)CCC(=O)Nc3ccc(C(=N)N)cc3)C(=O)O)[N]3C(=O)C[S][TcH]132=[O] (centres unmarked) [Example 26] | 
490 nM |  |  |  |  |  |  |  |  |  |  |  |  |  |  | CN(C)CCNC(=O)C(CCC(=O)O)NC(=O)C(CCCCNC(=O)CCNC(=O)C(CC(=O)O)NC(=O)CCC(=O)Nc1ccc(C(=N)N)cc1)NC(=O)CSC1CCCCO1 [Example 18, ABAS-L-Asp-β-Ala-ε-L-Lys(α-S-THP-mercaptoacetyl)-Glu-dme] | 
 | 0.067 % ID/g | 0.628 % ID/g | 0.043 % ID/g | 0.206 % ID/g | 0.011 % ID/g | 0.536 % ID/g | 0.015 % ID/g | 0.031 % ID/g | 0.007 % ID/g | 0.227 % ID/g | 0.014 % ID/g | 0.009 % ID/g | 16.277 % ID | 54.708 % ID | CN(C)CC[N]1C(=O)C(CCC(=O)O)[N]2C(=O)C(CCCC(=O)NCCCCC(NC(=O)C(CC(=O)O)NC(=O)CCC(=O)Nc3ccc(C(=N)N)cc3)C(=O)O)[N]3C(=O)C[S][99Tc-]132=[O] (centres unmarked) [Example 26] | 
 | 0.067 % ID/g | 0.864 % ID/g | 0.158 % ID/g | 0.645 % ID/g | 0.011 % ID/g | 0.520 % ID/g | 0.024 % ID/g | 0.015 % ID/g | 0.004 % ID/g | 0.241 % ID/g | 0.009 % ID/g | 0.002 % ID/g | 32.758 % ID | 41.217 % ID | CN(C)CC[N]1C(=O)C(CCC(=O)O)[N]2C(=O)C(CCCCNC(=O)CCNC(=O)C(CC(=O)O)NC(=O)CCC(=O)Nc3ccc(C(=N)N)cc3)[N]3C(=O)C[S][99Tc-]132=[O] (centres unmarked) [Example 19] | % ID/g ([3]; Blood): 0.0018 % ID/g; % ID/g ([3]; Clot 1 (DVT)): 0.0828 % ID/g; Clot/blood ([3]; Clot 1 (DVT)): 43; % ID/g ([3]; Clot 2 (PE)): 0.0114 % ID/g; Clot/blood ([3]; Clot 2 (PE)): 6; % ID/g ([3]; Clot 3 (PE)): 0.125 % ID/g; Clot/blood ([3]; Clot 3 (PE)): 65; % ID/g ([3]; Clot 4 (PE)): 0.142 % ID/g; Clot/blood ([3]; Clot 4 (PE)): 74; % ID/g ([3]; Clot 5 (PE)): 0.1232 % ID/g; Clot/blood ([3]; Clot 5 (PE)): 64

Reference: US6132697A, “Radiopharmaceutical compositions capable of localizing at sites of thrombus” (G. D. Searle & Co., priority 1997, dated 2000)
